# Assay results reported in patent US8618095B2 (Rigel Pharmaceuticals, Inc., priority 2010, dated 2013).
# Structures can show the parent of a compound that is named as a salt.
# Test system: Human mast cells (CHMC)
# Experiment: LD Tryptase release assay in CHMC (mast cell activation induced by FcγR cross-linking)
# Type: cell-based
# Settings: Homo sapiens, Mast cell, anti-IgG stimulation, activity of tryptase released upon degranulation
# Method: Compounds were assayed for inhibition of mast cell activation induced by FcγR cross-linking by measuring the activity of tryptase released upon degranulation as follows:
# Human mast cells were cultured and differentiated from […] progenitor cell as described in U.S. Patent Publication No. 2005-234049, incorporated herein by reference. For example, 65 μL of various concentrations of the compound to be assayed were prepared in MT (137 mM NaCl, 2.7 mM KCl, 1.8 mM CaCl2, 1.0 mM MgCl2, 5.6 mM Glucose, 20 mM Hepes (pH 7.4), 0.1% Bovine Serum Albumin, (Sigma A4503)) containing 2% MeOH and 1% DMSO, or control buffer were added to duplicate 96-well V-bottom plates. Pelleted and re-suspended (in warm MT) CHMC cells (65 μL) were added to each 96-well plate, mixed and incubated for 1 hour at 37° C. 25 μl of 6× anti-IgG Rabbit anti-human IgG, Affinity purified (Bethyl Laboratories Cat No. A80-105A3) final concentration 1 μg/mL, was added to the test wells. MT (25 μL) was added to control wells. After a 60-minute incubation at 37° C., cells and cell debris were pelleted by centrifugation at 1000 rpm for 10 min and tryptase and leukotriene C4 levels were measured.
# To measure tryptase levels, 25 μL of supernatant from each well was transferred to a fresh 96-well black bottom plate, to which 100 μL of fresh tryptase substrate solution [(Z-Ala-Lys-Arg-AMC2TFA; Enzyme Systems Products, #AMC-246)] 1:2000 in tryptase assay buffer [0.1 M Hepes (pH 7.5), 10% w/v Glycerol, 10 μM Heparin (Sigma H-4898) 0.01% NaN3] was added. After 30 minute incubation at room temperature, the optical density of the plates is measured at 355 nm/460 nm on a spectrophotometric plate reader. Table 1 provides the IC50 values.
# Compounds of the disclosure were assayed for their ability to inhibit mast cell activation induced by FcγR cross-linking by measuring the activity of tryptase released upon degranulation. The IC50 values for the LD Tryptase assay are presented in Table 2, in which “0” is >100 μM; “A” is 1-100 μM; “B” is 0.5-1 μM; “C” is 0.1-0.5 μM; and “D” is less than 0.1 μM: […]
row,Compound,IC50
1,"CC1(C)Oc2ccc(Nc3nc(Nc4ccc(N5CCOCC5)c(OC(F)F)c4)ncc3F)nc2NC1=O [Compound 25, N4-(2,2-dimethyl-3,4-dihydro-3-oxo-2H-pyrido[3,2-b][1,4]oxazin-6-yl)-5-fluoro-N2-[3-difluoromethoxy-4-morpholinophenyl]-2,4-pyrimidinediamine]",1 to 100 µM
2,"C[C@H]1COCCN1c1ccc(Nc2ncc(F)c(Nc3ccc4c(n3)NC(=O)C(C)(C)O4)n2)cn1 [Compound 138, N4-(2,2-dimethyl-3,4-dihydro-3-oxo-2H-pyrido[3,2-b][1,4]oxazin-6-yl)-5-fluoro-N2-[6-((3S)-3-methylmorpholino)pyridin-3-yl]-2,4-pyrimidinediamine]",0.1 to 0.5 µM
3,"C[C@H]1CN(c2ccc(Nc3ncc(F)c(Nc4ccc5c(n4)NC(=O)C(C)(C)O5)n3)cn2)[C@@H](C)CO1 (racemic) [Compound 105, rac-N4-(2,2-dimethyl-3,4-dihydro-3-oxo-2H-pyrido[3,2-b][1,4]oxazin-6-yl)-5-N2-[6-(2,5-dimethylmorpholino)pyridin-3-yl]-5-fluoro-2,4-pyrimidinediamine]",0.1 to 0.5 µM
4,"O=C1COc2ccc(Nc3nc(Nc4ccc(N5CC[C@H](O)C5)nc4)ncc3F)nc2N1 [Compound 63, N4-(3,4-dihydro-3-oxo-2H-pyrido[3,2-b][1,4]oxazin-6-yl)-5-fluoro-N2-[6-((3S)-3-hydroxypyrrolidin-1-yl)pyridin-3-yl]-2,4-pyrimidinediamine]",0.1 to 0.5 µM
5,"CCOC[C@H]1CN(c2ccc(Nc3ncc(F)c(Nc4ccc5c(n4)NC(=O)CO5)n3)cn2)CCO1 [Compound 102, N4-(3,4-dihydro-3-oxo-2H-pyrido[3,2-b][1,4]oxazin-6-yl)-N2-[6-(((2R)-2-ethoxymethyl)morpholino)pyridin-3-yl]-5-fluoro-2,4-pyrimidinediamine]",0.1 to 0.5 µM
6,"Cc1cc(Nc2ncc(F)c(Nc3ccc4c(n3)NC(=O)C(C)(C)O4)n2)cnc1N1CCOC(C)(C)C1 [Compound 14, N4-(2,2-dimethyl-3,4-dihydro-3-oxo-2H-pyrido[3,2-b][1,4]oxazin-6-yl)-5-fluoro-N2-[5-methyl-6-(2,2-dimethylmorpholino)pyridin-3-yl]-2,4-pyrimidinediamine]",0.5 to 1 µM
7,"CC1(C)CN(c2ccc(Nc3ncc(F)c(Nc4ccc5c(n4)NC(=O)CO5)n3)cn2)CCO1 [Compound 9, N4-(3,4-dihydro-3-oxo-2H-pyrido[3,2-b][1,4]oxazin-6-yl)-5-fluoro-N2-[6-(2,2-dimethylmorpholino)pyridin-3-yl]-2,4-pyrimidinediamine]",0.1 to 0.5 µM

# The next lines start with the values.
row,IC50,Compound
1,0.1 to 0.5 µM,"CCOC[C@@H]1CN(c2ccc(Nc3ncc(F)c(Nc4ccc5c(n4)NC(=O)CO5)n3)cn2)CCO1 [Compound 100, N4-(3,4-dihydro-3-oxo-2H-pyrido[3,2-b][1,4]oxazin-6-yl)-N2-[6-(((2S)-2-ethoxymethyl)morpholino)pyridin-3-yl]-5-fluoro-2,4-pyrimidinediamine]"
2,0.1 to 0.5 µM,"O=C1COc2ccc(Nc3nc(Nc4ccc(N5CCCCC5)cc4)ncc3F)nc2N1 [Compound 83, N4-(3,4-dihydro-3-oxo-2H-pyrido[3,2-b][1,4]oxazin-6-yl)-5-fluoro-N2-[4-(piperidin-1-yl)phenyl]-2,4-pyrimidinediamine]"
3,0.1 to 0.5 µM,"C[C@H]1CN(c2ccc(Nc3ncc(F)c(Nc4ccc5c(n4)NC(=O)C(C)(C)O5)n3)cc2)CCO1 [Compound 79, N4-(2,2-dimethyl-3,4-dihydro-3-oxo-2H-pyrido[3,2-b][1,4]oxazin-6-yl)-5-fluoro-N2-1-2,4-pyrimidinediamine]"
4,0.1 to 0.5 µM,"CC1(C)Oc2ccc(Nc3nc(Nc4ccc(N5CCC6(CCOC6)CC5)cc4)ncc3F)nc2NC1=O [Compound 157, N4-(2,2-dimethyl-3,4-dihydro-3-oxo-2H-pyrido[3,2-b][1,4]oxazin-6-yl)-5-fluoro-N2-[4-(2-oxa-8-azaspiro[4.5]decan-8-yl)phenyl]-2,4-pyrimidinediamine]"
5,0.1 to 0.5 µM,"CCN(CC)C1CCN(c2ccc(Nc3ncc(F)c(Nc4ccc5c(n4)NC(=O)C(C)(C)O5)n3)cn2)CC1 [Compound 61, N4-(2,2-dimethyl-3,4-dihydro-3-oxo-2H-pyrido[3,2-b][1,4]oxazin-6-yl)-5-fluoro-N2-[6-(4-(diethylamino)piperidin-1-yl)pyridin-3-yl]-2,4-pyrimidinediamine]"
6,< 0.1 µM,"C[C@H]1COCCN1c1ccc(Nc2ncc(F)c(Nc3ccc4c(n3)NC(=O)CO4)n2)cc1 [Compound 119, N4-(3,4-dihydro-3-oxo-2H-pyrido[3,2-b][1,4]oxazin-6-yl)-5-fluoro-N2-[4-((3S)-3-methylmorpholino)phenyl]-2,4-pyrimidinediamine]"
7,< 0.1 µM,"CC1(C)Oc2ccc(Nc3nc(Nc4ccc(N5CCOC5=O)cc4)ncc3F)nc2NC1=O [Compound 91, N4-(2,2-dimethyl-3,4-dihydro-3-oxo-2H-pyrido[3,2-b][1,4]oxazin-6-yl)-5-fluoro-N2-[4-(2-oxooxazolidin-3-yl)phenyl]-2,4-pyrimidinediamine]"
8,0.1 to 0.5 µM,"CCN[C@@H]1CCN(c2ccc(Nc3ncc(F)c(Nc4ccc5c(n4)NC(=O)C(C)(C)O5)n3)cn2)C1 [Compound 68, N4-(2,2-dimethyl-3,4-dihydro-3-oxo-2H-pyrido[3,2-b][1,4]oxazin-6-yl)-5-fluoro-N2-[6-((3R)-3-(ethylamino)pyyriolidin-1-yl)pyridin-3-yl]-2,4-pyrimidinediamine]"
9,< 0.1 µM,"CC1(C)Oc2ccc(Nc3nc(Nc4ccc(N5CC[C@@H](F)C5)nc4)ncc3F)nc2NC1=O [Compound 136, (R)—N4-(2,2-dimethyl-3,4-dihydro-3-oxo-2H-pyrido[3,2-b][1,4]oxazin-6-yl)-5-fluoro-N2-[6-(3-fluoropyrrolidin-1-yl)pyrid-3-yl]-2,4-pyrimidinediamine]"
10,0.1 to 0.5 µM,"COc1cc(Nc2ncc(F)c(Nc3ccc4c(n3)NC(=O)C(C)(C)O4)n2)ccc1C1CCOCC1 [Compound 48, N4-(2,2-dimethyl-3,4-dihydro-3-oxo-2H-pyrido[3,2-b][1,4]oxazin-6-yl)-5-fluoro-N2-[-3-methoxy-4-tetrahydropyranophenyl]-2,4-pyrimidinediamine]"
11,0.1 to 0.5 µM,"O=C1COc2ccc(Nc3nc(Nc4ccc5c(c4)OCC4COCCN54)ncc3F)nc2N1 (stereo not shown) [Compound 84, N4-(3,4-dihydro-3-oxo-2H-pyrido[3,2-b][1,4]oxazin-6-yl)-5-fluoro-N2-[1,2,4a,5-tetrahydro-4H-[1,4]oxazino[3,4-c][1,4]benzoxazin-8-yl]-2,4-pyrimidinediamine]"
12,< 0.1 µM,Cc1cc(Nc2ncc(F)c(Nc3ccc4c(n3)NC(=O)CO4)n2)ccc1N1CCOCC1 [Compound 32]
13,< 0.1 µM,CC1(C)Oc2ccc(Nc3nc(Nc4ccc(NC5CCOCC5)nc4)ncc3F)nc2NC1=O [Compound 134]
14,< 0.1 µM,"CC1(C)Oc2ccc(Nc3nc(Nc4ccc(N5CCO[C@@H](CF)C5)nc4)ncc3F)nc2NC1=O [Compound 145, N4-(2,2-dimethyl-3,4-dihydro-3-oxo-2H-pyrido[3,2-b][1,4]oxazin-6-yl)-5-fluoro-N2-[6-((2R)-2-(fluoromethyl)morpholino)pyridin-3-yl]-2,4-pyrimidinediamine]"
15,< 0.1 µM,"CC1(C)Oc2ccc(Nc3nc(Nc4ccc(N5CCS(=O)(=O)CC5)cc4)ncc3F)nc2NC1=O [Compound 149, N4-(2,2-dimethyl-3,4-dihydro-3-oxo-2H-pyrido[3,2-b][1,4]oxazin-6-yl)-5-fluoro-N2-[4-(1,1-dioxidothiomorpholin-4-yl)phenyl]-2,4-pyrimidinediamine]"

# Same assay, conditions: anti-IgG stimulation, activity of tryptase released upon degranulation
row,IC50,Compound
1,0.5 to 1 µM,"CC1(C)Oc2ccc(Nc3nc(Nc4ccc(N5CCOCC5)nc4)ncc3F)nc2NC1=O [Compound 140, N4-(2,2-dimethyl-3,4-dihydro-3-oxo-2H-pyrido[3,2-b][1,4]oxazin-6-yl)-5-fluoro-N2-[6-morpholinopyridin-3-yl]-2,4-pyrimidinediamine hydrochloric acid salt]"
2,0.5 to 1 µM,"CC1(C)Oc2ccc(Nc3nc(Nc4ccc(N5CCOCC5)nc4)ncc3F)nc2NC1=O [Compound 139, N4-(2,2-dimethyl-3,4-dihydro-3-oxo-2H-pyrido[3,2-b][1,4]oxazin-6-yl)-5-fluoro-N2-[6-morpholinopyridin-3-yl]-2,4-pyrimidinediamine p-toluenesulfonic acid salt]"

row,Compound,IC50
1,"CC1(C)Oc2ccc(Nc3nc(Nc4ccc(N5CCOCC5)nc4)ncc3F)nc2N(COP(=O)(O)O)C1=O [Compound 4, N4-(2,2-dimethyl-3,4-dihydro-4-[(dihydrogenphosphonoxy)methyl]-3-oxo-2H-pyrido[3,2-b][1,4]oxazin-6-yl)-5-fluoro-N2-(6-morpholinopyridin-3-yl)-2,4-pyrimidinediamine disodium salt]",1 to 100 µM
